Laboratory results from patent US9796753B2, “N-substituted indenoisoquinolines and syntheses thereof” (Purdue Research Foundation, priority 2005, dated 2017).
Where two headings read alike, the source gives them in different places.

Key:
[1] = system: CNS SF-539; assay: COMPARE screening (NCI human cancer cell line screen), cytotoxicity GI50; assay type: cell-based
How it was run: (§1)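 Read-out is sulforhodamine B optical density, expressed as a ratio to untreated control and plotted as percentage growth against log10 compound concentration. Exposure lasted 48 h at five concentrations from 100 to 0.01 μM in the NCI60 screen.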

[2] = system: colon HCT-116; assay: as above; assay type: cell-based
How it was run: as §1

[3] = system: lung HOP-62; assay: as above; assay type: cell-based
How it was run: as §1

[4] = system: melanoma UACC-62; assay: as above; assay type: cell-based
How it was run: as §1

[5] = system: ovarian OVCAR-3; assay: as above; assay type: cell-based
How it was run: as §1

[6] = system: prostate DU-145; assay: as above; assay type: cell-based
How it was run: as §1

[7] = system: renal SN12C; assay: as above; assay type: cell-based
How it was run: as §1

[8] = system: breast MDA-MB-435; assay: as above; assay type: cell-based
Experimental: COMPARE screening. The compounds described herein were examined for antiproliferative activity against the human cancer cell lines in the National Cancer Institute screen (COMPARE screening), in which the activity of each compound was evaluated with approximately 55 different cancer cell lines of diverse tumor origins. […] Therefore, the MGM value represents an overall assessment of toxicity of the compound across numerous cell lines.

[9] = system: all human cancer cell lines successfully tested; assay: NCI screen mean graph midpoint (MGM) for growth inhibition; assay type: cell-based
How it was run: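 NCI60 panel cells exposed to compound at 100, 10, 1, 0.1 and 0.01 μM for 48 h, then sulforhodamine B staining. Percentage growth versus control plotted against log concentration; MGM is the midpoint across all lines tested.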

[10] = system: panel of twelve human tumor cell lines; assay: Hollow fiber assay; assay type: in vivo; parameters: key to IP Score / SC score / Total score: 2 points each time viable cell mass falls ≥50% vs vehicle controls; key to Cell kill: A net cell kill at one or more implant sites is indicated with a Y; settings: for IP Score: intraperitoneal fibers in athymic nude mice, score 2 per 50% or greater reduction in viable cell mass; for IP Score / SC score: compounds IP once daily, four doses, two dose levels; for SC score: subcutaneous fibers in athymic nude mice; for Total score: sum of IP and SC scores; for Cell kill: net cell kill at one or more implant sites
Experimental: Hollow Fiber Activity. […] The effects of the compounds on the reduction of viable cancer cell mass compared to those of controls were determined. Each compound was tested in the hollow fiber assay against a panel of twelve human tumor cell lines as described previously; see, Hollingshead, M.; Plowman, J.; Alley, M.; Mayo, J.; Sausville, E., The Hollow Fiber Assay. Contrib. Oncol. 1999, 54, 109-120; and Plowman, J.; Camalier, R.; Alley, M.; Sausville, E.; Schepartz, S. Contrib. Oncol. […] The compounds were solubilized in 10% DMSO in saline/Tween-80® and administered intraperitoneally once daily for a total of four doses at each of two dose levels. The two doses were selected based on single dose toxicity studies for each derivative. A score of 2 was assigned each time the compound produced a 50% or greater reduction in viable cell mass compared to vehicle-treated controls. The score for each compound was summed for the intraperitoneal fibers and the subcutaneous fibers to provide the total score for each derivative as shown in Table 3 and Table 4. For comparative purposes, the score for the clinically used anticancer drug paclitaxel is provided.

[11] = all human cancer cell lines successfully tested
[12] = Table 1, average GI50 of all cell lines tested (approximately 55), test range 10^−8 to 10^−4 molar

| Compound | GI50 [1] | GI50 [2] | GI50 [3] | GI50 [4] | GI50 [5] | GI50 [6] | GI50 [7] | GI50 [8] | MGM (mean graph midpoint for growth inhibition) [9, 11] | IP Score ([10]; Table 4) | SC score ([10]; Table 4) | Total score ([10]; Table 4) | IP Score ([10]; Table 3) | SC score ([10]; Table 3) | Total score ([10]; Table 3) | MGM (mean graph midpoint for growth inhibition) [9, 12] | also measured |
| --- | --- | --- | --- | --- | --- | --- | --- | --- | --- | --- | --- | --- | --- | --- | --- | --- | --- |
| O=C(O)C(F)(F)F.O=C(O)C(F)(F)F.O=C1c2ccccc2-c2c1c1ccccc1c(=O)n2CCCNCCCCNCCCn1c2c(c3ccccc3c1=O)C(=O)c1ccccc1-2 [Compound 14h, Bis-1,4-{(5,6-dihydro-5,11-diketo-11H-indeno[1,2-c]isoquinoline)-6-propylamino}butane Bis(trifluoroacetate)] | 0.251 µM | < 0.005 µM | 0.525 µM | 0.562 µM | 0.135 µM | 234 nM | < 0.005 µM | 0.676 µM | 0.225 ± 0.084 µM | 12 | 4 | 16 |  |  |  |  |  |
| O=C(O)C(F)(F)F.O=C(O)C(F)(F)F.O=C(O)C(F)(F)F.O=C1c2ccccc2-c2c1c1ccccc1c(=O)n2CCNCCNCCNCCn1c2c(c3ccccc3c1=O)C(=O)c1ccccc1-2 [Compound 14i, Bis{(5,6-dihydro-5,11-diketo-11H-indeno[1,2-c]isoquinoline)-6-ethylamino-ethyl}amine Tris(trifluoroacetate)] | 0.275 µM | 0.112 µM | 0.048 µM | 0.269 µM | 1.15 µM | 331 nM | 0.017 µM | 1 µM | 0.474 ± 0.143 µM | 10 | 6 | 16 |  |  |  |  |  |
| CC(=O)O[C@H]1C(=O)[C@@]2(C)[C@H]([C@H](OC(=O)c3ccccc3)[C@]3(O)C[C@H](OC(=O)[C@H](O)[C@@H](NC(=O)c4ccccc4)c4ccccc4)C(C)=C1C3(C)C)[C@]1(OC(C)=O)CO[C@@H]1C[C@@H]2O [Paclitaxel, paclitaxel, reference compound] |  |  |  |  |  |  |  |  |  | 24 | 8 | 32 | 24 | 8 | 32 |  | Cell kill ([10]; Table 3): Y; Cell kill ([10]; Table 4): Y |
| COc1cc2c3c(n(CCCN4CCCNCC4)c(=O)c2cc1OC)-c1cc2c(cc1C3=O)OCO2.Cl.Cl [Compound 5v, 6-(3-Homopiperazinyl-1-propyl)-5,6-dihydro-2,3-dimethoxy-8,9-methylenedioxy-5,11-dioxo-11H-indeno[1,2-c]isoquinoline Dihydrochloride] | 0.145 µM | 0.214 µM | < 0.005 µM | 0.457 µM |  | 81 nM | 0.145 µM | 2.63 µM |  |  |  |  | 12 | 2 | 14 | 0.715 ± 0.335 µM | GI50 ([5]; Table 1, concentration corresponding to 50% growth inhibition, read-out: cytotoxicity (GI50) ovarian OVCAR-3): 5.01 µM |
| O=C(O)C(F)(F)F.O=C(O)C(F)(F)F.O=C1c2ccccc2-c2c1c1ccccc1c(=O)n2CCCNCCCNCCCn1c2c(c3ccccc3c1=O)C(=O)c1ccccc1-2 [Compound 14g, Bis-1,3-{(5,6-dihydro-5,11-diketo-11H-indeno[1,2-c]isoquinoline)-6-propylamino}propane Bis(trifluoroacetate)] |  |  |  |  |  |  |  |  | 0.394 ± 0.33 µM | 26 | 6 | 32 |  |  |  |  | GI50 ([1]; CNS SF-539, concentration corresponding to 50% growth inhibition, read-out: cytotoxicity (GI50 in μM) CNS SF-539): 0.011 µM; GI50 ([2]; colon HCT-116, concentration corresponding to 50% growth inhibition, read-out: cytotoxicity (GI50 in μM) colon HCT-116): < 0.01 µM; GI50 ([3]; lung HOP-62, concentration corresponding to 50% growth inhibition, read-out: cytotoxicity (GI50 in μM) lung HOP-62): < 0.01 µM; GI50 ([4]; melanoma UACC-62, concentration corresponding to 50% growth inhibition, read-out: cytotoxicity (GI50 in μM) melanoma UACC-62): 0.042 µM; GI50 ([5]; ovarian OVCAR-3, concentration corresponding to 50% growth inhibition, read-out: cytotoxicity (GI50 in μM) ovarian OVCAR-3): 0.074 µM; GI50 ([7]; renal SN12C, concentration corresponding to 50% growth inhibition, read-out: cytotoxicity (GI50 in μM) renal SN12C): < 0.01 µM; GI50 ([8]; breast MDA-MB-435, concentration corresponding to 50% growth inhibition, read-out: cytotoxicity (GI50 in μM) breast MDA-MB-435): 0.107 µM |
| COc1cc2c3c(n(CCCN4CCN(CCO)CC4)c(=O)c2cc1OC)-c1cc2c(cc1C3=O)OCO2 [Compound 5w, 3-[(1-Hydroxyethyl-piperazine)-1-propyl]-5,6-dihydro-2,3-dimethoxy-8,9-methylenedioxy-5,11-dioxo-11H-indeno[1,2-c]isoquinoline] | 1.44 µM | 2.34 µM | 9.77 µM | 1.23 µM | 15.1 µM | 275 nM | > 100 µM | > 100 µM |  |  |  |  | 8 | 0 | 8 | 7.86 ± 0.27 µM |  |
